#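 Five concentrations, 48 hours, 96-well plates. Here, GI50 denotes the concentration required for 50% inhibition of growth. TGI: total growth inhibition.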
# Columns and labels:
# Assay in all cases: NCI tumour cell line growth inhibition, 48 h
# 786-0 renal = tested on: 786-0 renal
# A498 renal = tested on: A498 renal
# A549 NSCLC = tested on: A549 NSCLC
# ACHN renal = tested on: ACHN renal
# CAKI-1 renal = tested on: CAKI-1 renal
# CCRF-CEM leukemia = tested on: CCRF-CEM leukemia
# COLO 205 colon = tested on: COLO 205 colon
# DLD-1 colon = tested on: DLD-1 colon
# DMS 114 small cell lung = tested on: DMS 114 small cell lung
# DMS 273 small cell lung = tested on: DMS 273 small cell lung
# EKVX NSCLC = tested on: EKVX NSCLC
# HCC-2998 colon = tested on: HCC-2998 colon
# HCT-116 colon = tested on: HCT-116 colon
# HCT-15 colon = tested on: HCT-15 colon
# HL-60(TB) leukemia = tested on: HL-60(TB) leukemia
# HOP-18 NSCLC = tested on: HOP-18 NSCLC
# HOP-62 NSCLC = tested on: HOP-62 NSCLC
# HOP-92 NSCLC = tested on: HOP-92 NSCLC
# HT29 colon = tested on: HT29 colon
# IGROV1 ovarian = tested on: IGROV1 ovarian
# K-562 leukemia = tested on: K-562 leukemia
# KM12 colon = tested on: KM12 colon
# KM20L2 colon = tested on: KM20L2 colon
# LOX IMVI melanoma = tested on: LOX IMVI melanoma
# LXFL 529 NSCLC = tested on: LXFL 529 NSCLC
# M14 melanoma = tested on: M14 melanoma
# M19-MEL melanoma = tested on: M19-MEL melanoma
# MALME-3M melanoma = tested on: MALME-3M melanoma
# MOLT-4 leukemia = tested on: MOLT-4 leukemia
# NCI-H226 lung = tested on: NCI-H226 lung
# NCI-H23 lung = tested on: NCI-H23 lung
# NCI-H460 lung = tested on: NCI-H460 lung
# NCI-H522 lung = tested on: NCI-H522 lung
# OVCAR-3 ovarian = tested on: OVCAR-3 ovarian
# OVCAR-4 ovarian = tested on: OVCAR-4 ovarian
# OVCAR-5 ovarian = tested on: OVCAR-5 ovarian
# OVCAR-8 ovarian = tested on: OVCAR-8 ovarian
# RPMI-8226 leukemia = tested on: RPMI-8226 leukemia
# RXF 393 renal = tested on: RXF 393 renal
# RXF-631 renal = tested on: RXF-631 renal
# SF-268 CNS = tested on: SF-268 CNS
# SF-295 CNS = tested on: SF-295 CNS
# SF-539 CNS = tested on: SF-539 CNS
# SK-MEL-2 melanoma = tested on: SK-MEL-2 melanoma
# SK-MEL-28 melanoma = tested on: SK-MEL-28 melanoma
# SK-MEL-5 melanoma = tested on: SK-MEL-5 melanoma
# SK-OV-3 ovarian = tested on: SK-OV-3 ovarian
# SN12C renal = tested on: SN12C renal
# SNB-19 CNS = tested on: SNB-19 CNS
# SNB-75 CNS = tested on: SNB-75 CNS
# SNB-78 CNS = tested on: SNB-78 CNS
# SR leukemia = tested on: SR leukemia
# SW-620 colon = tested on: SW-620 colon
# TK-10 renal = tested on: TK-10 renal
# U251 CNS = tested on: U251 CNS
# UACC-257 melanoma = tested on: UACC-257 melanoma
# UACC-62 melanoma = tested on: UACC-62 melanoma
# UO-31 renal = tested on: UO-31 renal
# XF 498 CNS = tested on: XF 498 CNS
# P388 leukemia = tested on: P388 leukemia
# P388/ADR leukemia = tested on: P388/ADR leukemia
# PC-3 prostate = tested on: PC-3 prostate
smiles,measurement,setting,value
O=c1/c(=C/c2ccco2)sc2nc3ccccc3n12,GI50,786-0 renal,> 100 µM
same,TGI,786-0 renal,> 100 µM
same,GI50,A498 renal,> 100 µM
same,TGI,A498 renal,> 100 µM
same,GI50,A549 NSCLC,> 100 µM
same,TGI,A549 NSCLC,> 100 µM
same,GI50,ACHN renal,> 100 µM
same,TGI,ACHN renal,> 100 µM
same,GI50,CAKI-1 renal,> 100 µM
same,TGI,CAKI-1 renal,> 100 µM
same,GI50,CCRF-CEM leukemia,> 100 µM
same,TGI,CCRF-CEM leukemia,> 100 µM
same,TGI,COLO 205 colon,> 100 µM
same,GI50,DLD-1 colon,> 100 µM
same,TGI,DLD-1 colon,> 100 µM
same,GI50,DMS 114 small cell lung,> 100 µM
same,TGI,DMS 114 small cell lung,> 100 µM
same,GI50,DMS 273 small cell lung,> 10 µM
same,TGI,DMS 273 small cell lung,> 100 µM
same,GI50,EKVX NSCLC,> 10 µM
same,TGI,EKVX NSCLC,> 100 µM
same,GI50,HCC-2998 colon,> 100 µM
same,TGI,HCC-2998 colon,> 100 µM
same,GI50,HCT-116 colon,> 100 µM
same,TGI,HCT-116 colon,> 100 µM
same,TGI,HCT-15 colon,> 10 µM
same,GI50,HL-60(TB) leukemia,> 100 µM
same,TGI,HL-60(TB) leukemia,> 100 µM
same,TGI,HOP-18 NSCLC,> 100 µM
same,TGI,HOP-62 NSCLC,> 100 µM
same,TGI,HOP-92 NSCLC,> 10 µM
same,GI50,HT29 colon,> 100 µM
same,TGI,HT29 colon,> 100 µM
same,GI50,IGROV1 ovarian,> 100 µM
same,TGI,IGROV1 ovarian,> 100 µM
same,GI50,K-562 leukemia,> 100 µM
same,TGI,K-562 leukemia,> 100 µM
same,TGI,KM12 colon,> 100 µM
same,TGI,KM20L2 colon,> 10 µM
same,GI50,LOX IMVI melanoma,> 100 µM
same,TGI,LOX IMVI melanoma,> 100 µM
same,GI50,LXFL 529 NSCLC,> 100 µM
same,TGI,LXFL 529 NSCLC,> 100 µM
same,GI50,M14 melanoma,> 100 µM
same,TGI,M14 melanoma,> 100 µM
same,GI50,M19-MEL melanoma,> 100 µM
same,TGI,M19-MEL melanoma,> 100 µM
same,GI50,MALME-3M melanoma,> 100 µM
same,TGI,MALME-3M melanoma,> 100 µM
same,GI50,MOLT-4 leukemia,> 100 µM
same,TGI,MOLT-4 leukemia,> 100 µM
same,GI50,NCI-H226 lung,> 100 µM
same,TGI,NCI-H226 lung,> 100 µM
same,GI50,NCI-H23 lung,> 100 µM
same,TGI,NCI-H23 lung,> 100 µM
same,GI50,NCI-H460 lung,> 100 µM
same,TGI,NCI-H460 lung,> 100 µM
same,GI50,NCI-H522 lung,> 100 µM
same,TGI,NCI-H522 lung,> 100 µM
same,GI50,OVCAR-3 ovarian,> 100 µM
same,TGI,OVCAR-3 ovarian,> 100 µM
same,GI50,OVCAR-4 ovarian,> 100 µM
same,TGI,OVCAR-4 ovarian,> 100 µM
same,TGI,OVCAR-5 ovarian,> 10 µM
same,GI50,OVCAR-8 ovarian,> 100 µM
same,TGI,OVCAR-8 ovarian,> 100 µM
same,GI50,RPMI-8226 leukemia,> 100 µM
same,TGI,RPMI-8226 leukemia,> 100 µM
same,GI50,RXF 393 renal,> 10 µM
same,TGI,RXF 393 renal,> 100 µM
same,GI50,RXF-631 renal,> 100 µM
same,TGI,RXF-631 renal,> 100 µM
same,TGI,SF-268 CNS,> 10 µM
same,GI50,SF-295 CNS,> 100 µM
same,TGI,SF-295 CNS,> 100 µM
same,GI50,SF-539 CNS,> 100 µM
same,TGI,SF-539 CNS,> 100 µM
same,GI50,SK-MEL-2 melanoma,> 100 µM
same,TGI,SK-MEL-2 melanoma,> 100 µM
same,GI50,SK-MEL-28 melanoma,> 100 µM
same,TGI,SK-MEL-28 melanoma,> 100 µM
same,GI50,SK-MEL-5 melanoma,> 100 µM
same,TGI,SK-MEL-5 melanoma,> 100 µM
same,TGI,SK-OV-3 ovarian,> 100 µM
same,TGI,SN12C renal,> 10 µM
same,GI50,SNB-19 CNS,> 100 µM
same,TGI,SNB-19 CNS,> 100 µM
same,GI50,SNB-75 CNS,> 10 µM
same,TGI,SNB-75 CNS,> 100 µM
same,GI50,SNB-78 CNS,> 100 µM
same,TGI,SNB-78 CNS,> 100 µM
same,TGI,SR leukemia,> 10 µM
same,GI50,SW-620 colon,> 100 µM
same,TGI,SW-620 colon,> 100 µM
same,GI50,TK-10 renal,> 10 µM
same,TGI,TK-10 renal,> 100 µM
same,TGI,U251 CNS,> 10 µM
same,GI50,UACC-257 melanoma,> 100 µM
same,TGI,UACC-257 melanoma,> 100 µM
same,GI50,UACC-62 melanoma,> 100 µM
same,TGI,UACC-62 melanoma,> 100 µM
same,TGI,UO-31 renal,> 10 µM
same,GI50,XF 498 CNS,> 100 µM
same,TGI,XF 498 CNS,> 100 µM
CCCCCCCCCCNC1CC(OC2CC(O)(C(O)CO)Cc3c(O)c4c(c(O)c32)C(=O)c2c(OC)cccc2C4=O)OC(C)C1O (configuration not stated),TGI,A498 renal,2.62 µM
same,TGI,CCRF-CEM leukemia,4.91 µM
same,TGI,DLD-1 colon,2.28 µM
same,TGI,HCC-2998 colon,2.74 µM
same,TGI,HCT-116 colon,0.65 µM
same,TGI,HCT-15 colon,4 µM
same,TGI,K-562 leukemia,0.963 µM
same,TGI,MOLT-4 leukemia,0.9 µM
same,TGI,NCI-H23 lung,12.6 µM
same,TGI,NCI-H522 lung,3.73 µM
same,TGI,OVCAR-5 ovarian,3.29 µM
same,TGI,P388 leukemia,0.362 µM
same,TGI,P388/ADR leukemia,3.34 µM
same,TGI,PC-3 prostate,2.85 µM
same,TGI,RPMI-8226 leukemia,3.73 µM
same,TGI,RXF 393 renal,2.75 µM
same,TGI,SF-539 CNS,3.41 µM
same,TGI,SK-MEL-5 melanoma,3.06 µM
same,TGI,SN12C renal,3.4 µM
same,TGI,SNB-75 CNS,2.74 µM
same,TGI,TK-10 renal,56.5 µM
same,TGI,UACC-257 melanoma,3.05 µM
same,TGI,XF 498 CNS,3.34 µM

# — PubChem BioAssay (NCI)
